Our source for the IC50 values is patent US20090270350A1, “Pyridinone Pyrazole Urea and Pyrimidinone Pyrazole Urea Derivatives” (PFIZER INC., priority 2006, published 2009).

Molecules are shown by their SMILES.

Chain of p38α (Q16539 whole entry): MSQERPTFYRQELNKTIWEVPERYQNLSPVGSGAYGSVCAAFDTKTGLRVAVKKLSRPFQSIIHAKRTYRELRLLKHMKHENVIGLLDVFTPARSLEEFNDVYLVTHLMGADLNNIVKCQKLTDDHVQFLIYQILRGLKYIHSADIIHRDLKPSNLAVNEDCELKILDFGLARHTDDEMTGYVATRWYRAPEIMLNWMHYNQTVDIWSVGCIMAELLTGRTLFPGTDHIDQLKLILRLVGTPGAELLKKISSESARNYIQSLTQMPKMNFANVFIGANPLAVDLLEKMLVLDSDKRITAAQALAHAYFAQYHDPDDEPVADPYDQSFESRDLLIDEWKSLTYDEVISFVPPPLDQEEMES

One assay has as its target p38α (Homo sapiens, UniProt Q16539). The assay is described as follows: p38α/MK2 cascade assay. Type of assay: biochemical. The note with it: Table 1; inhibitors preincubated with p38α for 40 minutes; phosphorylation of Hsp27 peptide by MK-2, Caliper LabChip 3000; read-out: p38a/MK2 Cascade 40 min Pre-Incuabtion (% Inhibition): IC50. The method in brief: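 In a cascade format, p38α was preincubated 40 min with inhibitor (1000–0.05 nM) before adding 1 nM nonactive MK2 (54-400), 5 μM MgATP and 0.5 μM FITC-Hsp27 peptide. Reaction ran 60 min in HEPES pH 7.5 with MgCl2, DTT, 2% DMSO, then EDTA-quenched. Peptide phosphorylation was measured by Caliper mobility shift to give IC50.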
As to `Cc1ccc(-n2nc(C(C)(C)C)cc2NC(=O)NCc2ccccc2COc2cc(C)n(Cc3ccc(O)cc3)c(=O)c2Br)cc1` [Example 100, 1-[2-({[3-bromo-1-(4-hydroxybenzyl)-6-methyl-2-oxo-1,2-dihydropyridin-4-yl]oxy}methyl)benzyl]-3-[3-tert-butyl-1-(4-methylphenyl)-1H-pyrazol-5-yl]urea], the IC50 amounted to 4.59 nM.

As for `COC(=O)c1ccc(C)c(-n2c(C)cc(OCc3ccc(F)cc3CNC(=O)Nc3cc(C(C)(C)C)nn3-c3ccc(C)cc3)c(Br)c2=O)c1` [Example 185, methyl 3-{3-bromo-4-[(2-{[({[3-tert-butyl-1-(4-methylphenyl)-1H-pyrazol-5-yl]amino}carbonyl)amino]methyl}-4-fluorobenzyl)oxy]-6-methyl-2-oxopyridin-1(2H)-yl}-4-methylbenzoate], the IC50 was 3.61 nM.

For the compound `COc1cccc(-n2nc(C(C)(C)C)cc2NC(=O)NCc2ccccc2COc2cc(C)n(Cc3ccccc3)c(=O)c2C)c1` [Example 128-B, 1-(2-{[(1-benzyl-3,6-dimethyl-2-oxo-1,2-dihydropyridin-4-yl)oxy]methyl}benzyl)-3-[3-tert-butyl-1-(3-methoxyphenyl)-1H-pyrazol-5-yl]urea], the IC50 was found to be 12.5 nM.

With `COC(=O)c1ccc(C)c(-n2c(C)cc(OCc3ccc(F)cc3CNC(=O)Nc3cc(C(C)(C)C)nn3-c3ccc(C)cc3)c(Cl)c2=O)c1` [Example 181, Methyl 3-{4-[(2-{[({[3-tert-butyl-1-(4-methylphenyl)-1H-pyrazol-5-yl]amino}carbonyl)amino]methyl}-4-fluorobenzyl)oxy]-3-chloro-6-methyl-2-oxopyridin-1(2H)-yl}-4-methylbenzoate], the IC50 amounted to 3.31 nM.

In the case of `COc1ccc(Cn2c(C)cc(OCc3ccccc3CNC(=O)Nc3cc(C(C)(C)C)nn3-c3cccc(Cl)c3)c(Br)c2=O)cc1` [Example 98], the IC50 turned out to be 4.23 nM.

As to `COc1ccc(Cn2c(C)cc(OCc3ccccc3CNC(=O)Nc3cc(C(C)(C)C)nn3-c3cccc(OCCO)c3)c(Cl)c2=O)cc1` [Example 57, 1-{3-tert-butyl-1-[3-(2-hydroxyethoxy)phenyl]-1H-pyrazol-5-yl}-3-[2-({[3-chloro-1-(4-methoxybenzyl)-6-methyl-2-oxo-1,2-dihydropyridin-4-yl]oxy}methyl)benzyl]urea], the IC50 worked out at 9.3 nM.

`COc1cccc(-n2nc(C(C)(C)C)cc2NC(=O)NCc2ccccc2COc2cc(C)n(Cc3ccccc3)c(=O)c2Br)c1` [Example 109, 1-(2-{[(1-benzyl-3-bromo-6-methyl-2-oxo-1,2-dihydropyridin-4-yl)oxy]methyl}benzyl)-3-[3-tert-butyl-1-(3-methoxyphenyl)-1H-pyrazol-5-yl]urea]: the IC50 came to 6.38 nM.

Take `COc1ccc(Cn2c(C)cc(OCc3ccccc3CNC(=O)Nc3cc(C(C)(C)C)nn3-c3ccc(F)cc3F)c(Br)c2=O)c(OC)c1` [Example 121, 1-[2-({[3-bromo-1-(2,4-dimethoxybenzyl)-6-methyl-2-oxo-1,2-dihydropyridin-4-yl]oxy}methyl)benzyl]-3-[3-tert-butyl-1-(2,4-difluorophenyl)-1H-pyrazol-5-yl]urea]: the IC50 was 11 nM.

In the case of `Cc1cc(OCc2ccccc2CNC(=O)Nc2cc(C(C)(C)C)nn2-c2cccc(F)c2)c(Br)c(=O)n1Cc1ccccc1` [Example 103, 1-(2-{[(1-benzyl-3-bromo-6-methyl-2-oxo-1,2-dihydropyridin-4-yl)oxy]methyl}benzyl)-3-[3-tert-butyl-1-(3-fluorophenyl)-1H-pyrazol-5-yl]urea], the IC50 was 2.62 nM.

The same assay, now with this note: Table 2; same p38α/MK2 cascade assay; 40 minutes preincubation; read-out: p38a/MK2 Cascade 40 min Pre-Incuabtion (% Inhibition): IC50.
Take `CSc1ccccc1Cn1c(C)cc(OCc2ccccc2CNC(=O)Nc2cc(C(C)(C)C)nn2-c2ccc(Cl)c(O)c2)c(C)c1=O` [Example 277, 1-[3-tert-butyl-1-(4-chloro-3-hydroxyphenyl)-1H-pyrazol-5-yl]-3-{2-[({3,6-dimethyl-1-[2-(methylthio)benzyl]-2-oxo-1,2-dihydropyridin-4-yl}oxy)methyl]benzyl}urea]: the IC50 was 131 nM.

Take `Cc1ccc(C(=O)NCCN(C)C)cc1-n1c(C)cc(OCc2ccccc2CNC(=O)Nc2cc(C(C)(C)C)nn2-c2ccc(O)c(Cl)c2)c(Cl)c1=O` [Example 229, 3-{4-[(2-{[({[3-tert-butyl-1-(3-chloro-4-hydroxyphenyl)-1H-pyrazol-5-yl]amino}carbonyl)amino]methyl}benzyl)oxy]-3-chloro-6-methyl-2-oxopyridin-1(2H)-yl}-N-[2-(dimethylamino)-ethyl]-4-methylbenzamide]: the IC50 was 2.3 nM.

In the case of `COc1ccccc1Cn1c(C)cc(OCc2ccccc2CNC(=O)Nc2cc(C(C)(C)C)nn2-c2ccc(O)cc2)c(C)c1=O` [Example 263, 1-[3-tert-butyl-1-(4-hydroxyphenyl)-1H-pyrazol-5-yl]-3-[2-({[1-(2-methoxybenzyl)-3,6-dimethyl-2-oxo-1,2-dihydropyridin-4-yl]oxy}methyl)benzyl]urea], the IC50 is 23.1 nM.

Consider `Cc1cc(OCc2ccccc2CNC(=O)Nc2cc(C(C)(C)C)nn2-c2ccc(Cl)c(O)c2)c(Cl)c(=O)n1Cc1ccc(CNC(=O)CN)cc1` [Example 272, N-[4-({4-[(2-{[({[3-tert-butyl-1-(4-chloro-3-hydroxyphenyl)-1H-pyrazol-5-yl]amino}carbonyl)amino]methyl}benzyl)oxy]-3-chloro-6-methyl-2-oxopyridin-1(2H)-yl}methyl)benzyl]-glycinamide], for which the IC50 came to 2.4 nM.

As to `Cc1cc(OCc2ccccc2CNC(=O)Nc2cc(C(C)(C)C)nn2-c2ccc(O)c(Cl)c2)c(Cl)c(=O)n1Cc1ccc(CNC(=O)CN)cc1` [Example 274, N-[4-({4-[(2-{[({[3-tert-butyl-1-(3-chloro-4-hydroxyphenyl)-1H-pyrazol-5-yl]amino}carbonyl)amino]methyl}benzyl)oxy]-3-chloro-6-methyl-2-oxopyridin-1(2H)-yl}methyl)benzyl]-glycinamide], the IC50 worked out at 3.6 nM.

As to `COc1ccccc1Cn1c(C)cc(OCc2ccccc2CNC(=O)Nc2cc(C(C)(C)C)nn2-c2ccc(O)cc2)c(Cl)c1=O` [Example 246, 1-[3-tert-butyl-1-(4-hydroxyphenyl)-1H-pyrazol-5-yl]-3-[2-({[3-chloro-1-(2-methoxybenzyl)-6-methyl-2-oxo-1,2-dihydropyridin-4-yl]oxy}methyl)benzyl]urea], the IC50 was 10 nM.

Turning to `COCCNC(=O)c1ccc(C)c(-n2c(C)cc(OCc3ccccc3CNC(=O)Nc3cc(C(C)(C)C)nn3-c3cccc(OCCO)c3)c(Cl)c2=O)c1` [Example 238, 3-[4-{[2-({[({3-tert-butyl-1-[3-(2-hydroxyethoxy)phenyl]-1H-pyrazol-5-yl}amino)carbonyl]amino}methyl)benzyl]oxy}-3-chloro-6-methyl-2-oxopyridin-1(2H)-yl]-N-(2-methoxyethyl)-4-methylbenzamide], the IC50 was 2 nM.

For the compound `CNC(=O)c1ccc(C)c(-n2c(C)cc(OCc3ccc(F)cc3CNC(=O)Nc3cc(C(C)(C)C)nn3-c3ccc(O)c(Cl)c3)c(Cl)c2=O)c1` [Example 236, 3-{4-[(2-{[({[3-tert-butyl-1-(3-chloro-4-hydroxyphenyl)-1H-pyrazol-5-yl]amino}carbonyl)amino]methyl}-4-fluorobenzyl)-oxy]-3-chloro-6-methyl-2-oxopyridin-1(2H)-yl}-N,4-dimethyl-benzamide], the IC50 came out at 7.5 nM.

Turning to `CNC(=O)c1ccc(C)c(-n2c(C)cc(OCc3ccccc3CNC(=O)Nc3cc(C(C)(C)C)nn3-c3ccc(O)c(Cl)c3)c(Cl)c2=O)c1` [Example 223, 3-{4-[(2-{[({[3-tert-butyl-1-(3-chloro-4-hydroxyphenyl)-1H-pyrazol-5-yl]amino}carbonyl)amino]methyl}benzyl)oxy]-3-chloro-6-methyl-2-oxopyridin-1(2H)-yl}-N,4-dimethylbenzamide], the IC50 worked out at 4.6 nM.

As for `COc1ccc(Cn2c(C)cc(OCc3ccccc3CNC(=O)Nc3cc(C(C)(C)C)nn3-c3ccc(O)cc3)c(C)c2=O)cc1C#N` [Example 253, 1-[3-tert-butyl-1-(4-hydroxyphenyl)-1H-pyrazol-5-yl]-3-[2-({[1-(3-cyano-4-methoxybenzyl)-3,6-dimethyl-2-oxo-1,2-dihydropyridin-4-yl]oxy}methyl)benzyl]urea], the IC50 was 8.3 nM.

As to `COCCNC(=O)c1ccc(C)c(-n2c(C)cc(OCc3ccccc3CNC(=O)Nc3cc(C(C)(C)C)nn3-c3ccc(O)c(Cl)c3)c(Cl)c2=O)c1` [Example 225, 3-{4-[(2-{[({[3-tert-butyl-1-(3-chloro-4-hydroxyphenyl)-1H-pyrazol-5-yl]amino}carbonyl)amino]methyl}benzyl)oxy]-3-chloro-6-methyl-2-oxopyridin-1(2H)-yl}-N-(2-methoxyethyl)-4-methylbenzamide], the IC50 is 3.03 nM.

For the compound `COC(=O)c1ccc(C)c(-n2c(C)cc(OCc3ccccc3CNC(=O)Nc3cc(C(C)(C)C)nn3-c3ccc(C)cc3)c(Cl)c2=O)c1` [Example 205, methyl 3-{4-[(2-{[({[3-tert-butyl-1-(4-methylphenyl)-1H-pyrazol-5-yl]amino}carbonyl)-amino]methyl}benzyl)oxy]-3-chloro-6-methyl-2-oxopyridin-1(2H)-yl}-4-methylbenzoate], the IC50 is 2.5 nM.

With `CNC(=O)c1ccc(C)c(-n2c(C)cc(OCc3ccc(F)cc3CNC(=O)Nc3cc(C(C)(C)C)nn3-c3ccc(C)cc3)c(Cl)c2=O)c1` [Example 206, 3-{4-[(2-{[({[3-tert-butyl-1-(4-methylphenyl)-1H-pyrazol-5-yl]amino}carbonyl)amino]methyl}-4-fluorobenzyl)oxy]-3-chloro-6-methyl-2-oxopyridin-1(2H)-yl}-N,4-dimethylbenzamide], the IC50 is 3.71 nM.
